Assay in all cases: NCI-60 cell line screen, 48 h
The subject of assay [1] is SW-620 colon.
Assay [2] has as its system SK-MEL-5 melanoma.
The test system of assay [3] is UACC-62 melanoma.
In assay [4] the test system is DMS 114 small cell lung.
In assay [5] the test system is OVCAR-4 ovarian.
Assay [6] concerns OVCAR-5 ovarian.
Assay [7] concerns DLD-1 colon.
Assay [8] relates to NCI-H226 lung.
Assay [9] deals with SN12C renal.
Assay [10] deals with BT-549 breast.

“And” between values parts separate entries of the source, which are not always exact repeats. Identical values can stand only once.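 Grown in 96-well plates, cells were treated for 48 hours with each compound at five concentrations. Insufficient inhibition: endpoint recorded as highest concentration tested. The concentration for 50% growth inhibition is given as GI50. TGI is the concentration that stops growth completely.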

Take `Cc1cc(=O)n(-c2ccccc2C)c(C)n1`: the TGI in assay [1], in [2], in assay [3], in assay [4], in [5] and in [6] was more than 100 µM in each case. Besides, the TGI in [7], in assay [8] and in assay [9] was more than 100 µM in each case.

Consider `CCOC(=O)NC(=O)c1cn(CCOC(=O)CCCCCCCCC(=O)OCCn2cc(C(=O)NC(=O)OCC)c(=O)[nH]c2=O)c(=O)[nH]c1=O`, for which the TGI in assay [1], in assay [2], in [3], in [4], in [5] and in [6] was more than 100 µM throughout. Also, the TGI in assay [7], in assay [8] and in assay [9] was more than 100 µM throughout.

With `Cc1ccc(S(=O)(=O)OC2CSS(=O)CC2OS(=O)(=O)c2ccc(C)cc2)cc1` (configuration not stated), the TGI is 18.9 µM in assay [1]; 30.1 µM in [2]; 29.2 µM in assay [3]; 32.2 µM in assay [4]; 32.6 µM in assay [5]; 32.1 µM in [6]. For the same molecule, the figures for the TGI in assay [7], in assay [8] and in assay [9] were 23.6 µM, 34.4 µM and 28.5 µM, respectively.

For the molecule `CC1CCC(NC(=O)N(CCCl)N=O)CC1` (configuration not stated), the GI50 in assay [1] is 17.7 µM; in [2] it was 29.8 µM; in assay [3] it was 7.87 µM; in assay [4], 19 µM; in [7] it was 22.3 µM; in assay [8], 36.1 µM. Besides, the GI50 in assay [9] is 19.1 µM. The TGI was 37.4 µM and 71.5 µM in assay [1]; more than 87.5 µM in [2]; 29.7 µM and 53.5 µM in assay [3]; 40.4 µM and 87.3 µM in [4]; 57.2 µM in [10]; 61.1 µM in [5]. Further, the TGI in assay [6] is 105 µM; in assay [7], 47.7 µM and 79.4 µM; in assay [8] it was 150 µM; in assay [9], 41.7 µM and 81.4 µM.

Consider `CCc1cc(C(=O)OC)cn1C(=N)c1ccc(Cl)cc1`, for which the TGI in assay [1], in [2], in [3], in [4], in [5] and in [6] was more than 100 µM in each case. In addition, the TGI in assay [7], in assay [8] and in [9] was more than 100 µM throughout.

For `CCC[CH2][Sn]1([CH2]CCC)[O]C(=O)c2cccnc2[O]1`, the GI50 in [1] was 1.48 µM; in assay [2], 4.57 µM; in assay [3], 1.8 µM; in assay [4], 1.95 µM; in [5], 1.65 µM; in [6], 11.9 µM. Also, the values for the GI50 in [7], in assay [8] and in assay [9] were 3.11 µM, 10.5 µM and 2.58 µM, respectively. The TGI in [1] amounted to 3.6 µM; in assay [2] it was 16.8 µM; in assay [3], 3.94 µM; in [4], 4.05 µM; in assay [5], 8.57 µM; in assay [6], 24.2 µM. The TGI turned out to be 10.7 µM in assay [7], 23 µM in assay [8] and 8.79 µM in [9].

As to `CP1(=O)CCCCC1`, the TGI in [1], in assay [2], in assay [3], in [4], in assay [5] and in assay [6] was more than 100 µM each time. In addition, the TGI in assay [7], in assay [8] and in assay [9] was more than 100 µM in each case.

For the molecule `COc1cc(C[C@H]2c3cc(OC)c(OC)cc3CCN2C)c(Oc2cc3c(cc2OC)-c2c(OC)c(OC)cc4c2[C@H](C3)N(C)CC4)cc1OC`, the GI50 in [1] is 13.3 µM; in [2] it was 1.97 µM; in assay [3], 19 µM; in assay [4], 4 µM; in assay [5], 14.6 µM; in [6], 18 µM. Besides, the values for the GI50 in [8] and in assay [9] were 19.7 µM and 16.6 µM, respectively. Besides, the TGI in [1] was 22.6 µM and 32.5 µM; in assay [2], 11.1 µM and 3.58 µM; in [3], 13.4 µM and 34.2 µM; in assay [4], 18 µM and 14.4 µM; in assay [10] it was 13.1 µM; in assay [5], 23.9 µM and 28.6 µM. For the same molecule, the TGI in assay [6] is 33.6 µM and 32.6 µM; in [7], 40.8 µM and 28.3 µM; in assay [8], 29.4 µM and 34.6 µM; in assay [9], 39.8 µM and 30.8 µM.

Turning to `COc1ccc(Br)c(N/N=C2\CCCNC2=O)c1`, the TGI in [1], in assay [2], in assay [3], in assay [4], in assay [5] and in assay [6] was more than 100 µM each time. The TGI in [7], in assay [8] and in assay [9] was more than 100 µM throughout.

On to `COc1cc(OC(=O)c2ccccc2)cc2c1C(=O)C=CC2=O`, for which the TGI worked out at 39.2 µM in [1]; 30.6 µM in [2]; 28.5 µM in assay [3]; 30.2 µM in [4]; 29.8 µM in assay [10]; 12.3 µM in assay [5]. The TGI in [6] amounted to 54.5 µM; in assay [7], 35.5 µM; in [8] it was 49.4 µM; in assay [9], 45 µM.
